Assay results taken from patent US10597388B2, “Pyridazinone herbicides” (FMC CORPORATION, priority 2014, dated 2020).

What was measured:
Assay in all cases: Test C greenhouse herbicide test, pre- and postemergence
Format in all cases: in vivo
[1] = tested on: barnyardgrass (Echinochloa crus-galli)
Outline: (§1)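 Visual ratings on a 0 to 100 scale (0 = no effect, 100 = complete control) versus untreated controls, scored 13–15 d after treatment. Soil-applied preemergence to seeded loam/sand; foliar postemergence to 1- to 4-leaf plants (2–18 cm) in peat-vermiculite mix; compounds formulated in solvent plus surfactant.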

soybean (Glycine max) = tested on: soybean (Glycine max)
Outline: as §1

[2] = tested on: morningglory (Ipomoea coccinea)
Outline: as §1

[3] = tested on: pigweed (Amaranthus retroflexus)
Outline: as §1

[4] = tested on: ragweed (common ragweed, Ambrosia elatior)
Outline: as §1

[5] = tested on: oilseed rape (Brassica napus)
Outline: as §1

[6] = tested on: lambsquarters (Chenopodium album)
Outline: as §1

[7] = tested on: blackgrass (Alopecurus myosuroides)
Outline: as §1

[8] = tested on: galium (catchweed bedstraw, Galium aparine)
Outline: as §1

[9] = tested on: wheat (winter wheat, Triticum aestivum)
Outline: as §1

[10] = tested on: waterhemp (common waterhemp, Amaranthus rudis)
Outline: as §1

[11] = tested on: foxtail, giant (giant foxtail, Setaria faberii)
Outline: as §1

[12] = tested on: crabgrass, large (large crabgrass, Digitaria sanguinalis)
Outline: as §1

[13] = tested on: velvetleaf (Abutilon theophrasti)
Outline: as §1

[14] = tested on: johnsongrass (Sorghum halepense)
Outline: as §1

[15] = tested on: nutsedge, yellow (yellow nutsedge, Cyperus esculentus)
Outline: as §1

[16] = Postemergence, 31 g ai/ha, 0 to 100 scale (0 no effect, 100 complete control)
[17] = Postemergence, 125 g ai/ha, scale 0 to 100, 0 is no effect, 100 is complete control
[18] = Postemergence, 250 g ai/ha, scale 0 to 100, 0 no effect, 100 complete control, 13 to 15 d
[19] = Preemergence, 31 g ai/ha, scale 0 to 100, 0 is no effect, 100 is complete control
[20] = Preemergence, 62 g ai/ha, scale 0 to 100, 0 is no effect, 100 is complete control
[21] = Preemergence, 125 g ai/ha, scale 0 to 100, 0 is no effect, 100 is complete control
[22] = Preemergence, 250 g ai/ha, scale 0 to 100 (0 no effect, 100 complete control)
[23] = postemergence, 62 g ai/ha, scale 0 to 100, 0 no effect, 100 complete control

CCOC(=O)Oc1c(C)nn(C)c(=O)c1-c1c(C)sc2ccc(C)cc12 [Compound 82]
20: Barnyardgrass plant response rating [1, 16] | Plant response rating, Crabgrass, Large [12, 17] | Plant response rating, Crabgrass, Large [12, 20] | Crabgrass, Large plant response rating [12, 23]
98: Ragweed plant response rating [4, 23] | Plant response rating, Lambsquarters [6, 17] | Plant response rating, Lambsquarters [6, 21] | Lambsquarters plant response rating [6, 22] | Lambsquarters plant response rating [6, 23] | Plant response rating, Waterhemp [10, 18] | Waterhemp plant response rating [10, 23]
0: Plant response rating, Soybean (soybean (Glycine max); [19]) | Plant response rating, Soybean (soybean (Glycine max); [21]) | Soybean plant response rating (soybean (Glycine max); [22]) | Plant response rating, Oilseed Rape [5, 19] | Plant response rating, Oilseed Rape [5, 20] | Plant response rating, Oilseed Rape [5, 21] | Plant response rating, Wheat [9, 19] | Plant response rating, Wheat [9, 20] | Plant response rating, Wheat [9, 21] | Wheat plant response rating [9, 22] | Wheat plant response rating [9, 23]
30: Plant response rating, Barnyardgrass [1, 18] | Plant response rating, Crabgrass, Large [12, 18]
40: Oilseed Rape plant response rating [5, 23] | Plant response rating, Blackgrass [7, 18] | Johnsongrass plant response rating [14, 22]
90: Barnyardgrass plant response rating [1, 22] | Plant response rating, Morningglory [2, 20] | Plant response rating, Pigweed [3, 17] | Plant response rating, Pigweed [3, 18] | Pigweed plant response rating [3, 23] | Plant response rating, Ragweed [4, 20] | Plant response rating, Ragweed [4, 21] | Plant response rating, Lambsquarters [6, 20] | Plant response rating, Galium [8, 19] | Plant response rating, Galium [8, 20] | Plant response rating, Galium [8, 21] | Plant response rating, Waterhemp [10, 17] | Plant response rating, Foxtail, Giant [11, 21] | Plant response rating, Velvetleaf [13, 18] | Velvetleaf plant response rating [13, 22] | Nutsedge, Yellow plant response rating [15, 22]
55: Plant response rating, Barnyardgrass [1, 20]
70: Plant response rating, Barnyardgrass [1, 21] | Plant response rating, Crabgrass, Large [12, 21]
60: Plant response rating, Blackgrass [7, 20] | Plant response rating, Foxtail, Giant [11, 17] | Plant response rating, Foxtail, Giant [11, 19] | Plant response rating, Johnsongrass [14, 21] | Plant response rating, Nutsedge, Yellow [15, 20] | Plant response rating, Nutsedge, Yellow [15, 21]
80: Blackgrass plant response rating [7, 22] | Plant response rating, Foxtail, Giant [11, 18] | Crabgrass, Large plant response rating [12, 22] | Plant response rating, Velvetleaf [13, 20] | Velvetleaf plant response rating [13, 23] | Nutsedge, Yellow plant response rating [15, 23]
10: Plant response rating, Barnyardgrass [1, 19] | Plant response rating, Soybean (soybean (Glycine max); [18]) | Soybean plant response rating (soybean (Glycine max); [23]) | Blackgrass plant response rating [7, 16] | Plant response rating, Johnsongrass [14, 17] | Plant response rating, Johnsongrass [14, 18]
75: Plant response rating, Oilseed Rape [5, 18]
95: Plant response rating, Morningglory [2, 21] | Morningglory plant response rating [2, 22] | Plant response rating, Pigweed [3, 19] | Plant response rating, Ragweed [4, 17] | Plant response rating, Ragweed [4, 18] | Ragweed plant response rating [4, 22] | Plant response rating, Galium [8, 17] | Plant response rating, Galium [8, 18] | Galium plant response rating [8, 22] | Galium plant response rating [8, 23] | Plant response rating, Velvetleaf [13, 17]
50: Plant response rating, Oilseed Rape [5, 17] | Plant response rating, Blackgrass [7, 19]
85: Plant response rating, Morningglory [2, 19] | Plant response rating, Ragweed [4, 19] | Oilseed Rape plant response rating [5, 22] | Plant response rating, Lambsquarters [6, 19] | Plant response rating, Foxtail, Giant [11, 20] | Plant response rating, Velvetleaf [13, 21] | Plant response rating, Nutsedge, Yellow [15, 17] | Plant response rating, Nutsedge, Yellow [15, 18]
100: Plant response rating, Soybean (soybean (Glycine max); [20]) | Plant response rating, Morningglory [2, 17] | Plant response rating, Morningglory [2, 18] | Morningglory plant response rating [2, 23] | Plant response rating, Pigweed [3, 20] | Plant response rating, Pigweed [3, 21] | Pigweed plant response rating [3, 22] | Plant response rating, Lambsquarters [6, 18] | Plant response rating, Waterhemp [10, 19] | Plant response rating, Waterhemp [10, 20] | Plant response rating, Waterhemp [10, 21] | Waterhemp plant response rating [10, 22] | Foxtail, Giant plant response rating [11, 22]
5: Plant response rating, Soybean (soybean (Glycine max); [17]) | Plant response rating, Wheat [9, 17] | Plant response rating, Wheat [9, 18] | Johnsongrass plant response rating [14, 23]
35: Plant response rating, Blackgrass [7, 17] | Blackgrass plant response rating [7, 23] | Plant response rating, Nutsedge, Yellow [15, 19]
25: Plant response rating, Barnyardgrass [1, 17] | Barnyardgrass plant response rating [1, 23] | Foxtail, Giant plant response rating [11, 23] | Plant response rating, Crabgrass, Large [12, 19]
65: Plant response rating, Blackgrass [7, 21] | Plant response rating, Velvetleaf [13, 19] | Plant response rating, Johnsongrass [14, 20]
45: Plant response rating, Johnsongrass [14, 19]
